Our source for the IC50 values is patent publication US11976083B2, “Inhibitors of peptidylarginine deiminases” (Gilead Sciences, Inc., priority 2020, dated 2024).

What is called pIC50 is the IC50 on a negative log10 scale, so that one unit is a factor of ten.

pIC50: −log10 of the molar value.

This assay deals with T1, human PAD4 (Homo sapiens, UniProt Q9UM07).
T1 construct: human PAD4 (NM_012387), A2-P663, was PCR amplified; His-SUMO (N, cleaved yes); made in house; host or cells: E. coli BL21(DE3)
T1 sequence (Q9UM07 2-663): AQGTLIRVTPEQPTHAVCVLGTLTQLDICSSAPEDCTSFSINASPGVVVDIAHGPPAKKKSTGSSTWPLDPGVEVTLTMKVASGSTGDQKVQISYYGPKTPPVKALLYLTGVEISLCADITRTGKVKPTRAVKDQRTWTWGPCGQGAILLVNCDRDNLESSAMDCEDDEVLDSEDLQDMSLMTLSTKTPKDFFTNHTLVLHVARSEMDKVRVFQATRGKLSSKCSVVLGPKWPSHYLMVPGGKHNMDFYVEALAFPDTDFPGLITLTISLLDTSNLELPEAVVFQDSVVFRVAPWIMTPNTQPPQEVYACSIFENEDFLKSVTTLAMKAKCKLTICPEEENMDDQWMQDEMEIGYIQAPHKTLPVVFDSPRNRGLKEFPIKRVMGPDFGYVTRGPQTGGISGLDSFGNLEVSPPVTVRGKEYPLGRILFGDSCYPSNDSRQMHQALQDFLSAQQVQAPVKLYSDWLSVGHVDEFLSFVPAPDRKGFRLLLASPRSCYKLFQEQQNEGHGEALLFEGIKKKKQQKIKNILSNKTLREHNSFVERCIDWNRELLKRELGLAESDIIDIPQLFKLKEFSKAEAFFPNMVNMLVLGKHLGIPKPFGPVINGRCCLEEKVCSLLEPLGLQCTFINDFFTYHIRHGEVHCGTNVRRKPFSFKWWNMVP
Kind of assay: In vitro PAD4 BAEE biochemical assay. The note with it: BAEE substrate 3 mM, 5 nM PAD4, 2 mM calcium chloride; geometric mean of multiple experiments. An outline of the steps:
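PAD4 5 nM, CaCl2 2 mM, BAEE 3 mM final; 50 mM MOPS pH 7.6, 50 mM NaCl, 0.05% Tween-20, 2 mM DTT. Cpd + enzyme 30 min 25 °C; substrate 2 h 25 °C; EDTA stop; OPA detection 1 h. IC50 4-parameter fit.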
Take `Cc1cc2c(cc1C(=O)N1[C@H]3CC[C@@H]1[C@H](N)C3)nc(-c1cc3ccc4nc3n1CCCCCCC(C)(C)C(=O)N[C@@H]4C)n2C` [Example 556, (11~{R})-17-[5-[(1~{R}, 2~{R},4~{S})-2-amino-7-azabicyclo[2.2.1]heptane-7-carbonyl]-1,6-dimethyl-benzimidazol-2-yl]-8,8,11-trimethyl-1,10,19-triazatricyclo[10.5.2.0^ {15,18}]nonadeca-12(19),13,15(18),16-tetraen-9-one]: the pIC50 is 7.16. Under `C[C@H]1NC(=O)[C@@H]2C[C@H]2CCCCCn2c(-c3nc4cc(C(=O)N5[C@H]6CC[C@@H]5[C@H](N)C6)c(F)cc4n3C3CC3)cc3ccc1nc32` [Example 557, (2~{R},5~{R},7~{R})-14-[5-[(1~{R},2~{R},4~ {S})-2-amino-7-azabicyclo [2.2.1]heptane-7-carbonyl]-1-cyclopropyl-6-fluoro-benzimidazol-2-yl]-2-methyl-3,13,19-triazatetracyclo[11.5.2.0^ {5,7}.0^{16,20}] icosa-1(19),14,16(20), 17-tetraen-4-one] stands 7.51; under `COCCn1c(-c2cc3ccc4nc3n2CCCCCCC(C)(C)C(=O)N[C@@H]4C)nc2cc(C(=O)N[C@H]3CNCC[C@@H]3F)c(F)c(F)c21` [Example 558, 6,7-difluoro-~{N}-[(3~{S},4~{S})-4-fluoro-3-piperidyl]-1-(2-methoxyethyl)-2-[(11~{R})-8,8,11-trimethyl-9-oxo-1,10,19-triazatricyclo [10.5.2.0^{15,18}]nonadeca-12(19),13,15(18),16-tetraen-17-yl]benzimidazole-5-carboxamide], 7.10. As to `COCCn1c(-c2cc3ccc4nc3n2CCCCC[C@@H]2C[C@H]2C(=O)N[C@@H]4C)nc2cc(C(=O)N[C@H]3CNCC[C@@H]3F)c(F)c(F)c21` [Example 559, 6,7-difluoro-~{N}-[(3~{S},4~{S})-4-fluoro-3-piperidyl]-1-(2-methoxyethyl)-2-[(2~{R},5~{R},7~ {R})-2-methyl-4-oxo-3,13,19-triazatetracyclo [11.5.2.0^{5,7}.0^{16,20}]icosa-1(19),14,16(20), 17-tetraen-14-yl] benzimidazole-5-carboxamide], the negative logarithm of the IC50 (pIC50) is 7.33. With `C[C@H]1NC(=O)[C@@H]2C[C@H]2CCCC(F)(F)Cn2c(-c3nc4cc(C(=O)N[C@H]5CNCC[C@@H]5F)c(F)c(F)c4n3C)cc3ccc1nc32` [Example 560, 2-[(2~{R},5~{R},7~ {R})-11,11-difluoro-2-methyl-4-oxo-3,13,19-triazatetracyclo[11.5.2.0^ {5,7}.0^{16,20}]icosa-1(19), 14,16(20),17-tetraen-14-yl]-6,7-difluoro-~{N}-[(3~{S},4~{S})-4-fluoro-3-piperidyl]-1-methyl-benzimidazole-5-carboxamide] the figure was 7.28; with `C[C@H]1NC(=O)[C@@H]2C[C@H]2C/C=C/CCn2c(-c3nc4cc(C(=O)N[C@H]5CNCC[C@@H]5F)cc(C(F)(F)F)c4n3C)cc3ccc1nc32` [Example 561, ~{N}-[(3~{S},4~{S})-4-fluoro-3-piperidyl]-1-methyl-2-[(2~{R},5~{R}, 7~{R},9~{E})-2-methyl-4-oxo-3,13,19-triazatetracyclo [11.5.2.0^{5,7}.0^{16,20}]icosa-1(19),9,14,16(20), 17-pentaen-14-yl]-7-(trifluoromethyl) benzimidazole-5-carboxamide], 6.28. Under `C[C@H]1NC(=O)[C@@H]2C[C@H]2CCCCCn2c(-c3nc4cc(C(=O)N[C@H]5CNCC[C@@H]5F)cc(C(F)(F)F)c4n3C)cc3ccc1nc32` [Example 562, ~{N}-[(3~{S},4~{S})-4-fluoro-3-piperidyl]-1-methyl-2-[(2~{R},5~{R},7~ {R})-2-methyl-4-oxo-3,13,19-triazatetracyclo [11.5.2.0^{5,7}.0^{16,20}]icosa-1(19),14,16(20), 17-tetraen-14-yl]-7-(trifluoromethyl) benzimidazole-5-carboxamide] stands 6.33. With `C[C@H]1NC(=O)[C@@H]2C[C@H]2CCCCCn2c(-c3nc4cc(C(=O)N5[C@H]6CC[C@@H]5[C@H](N)C6)cnc4n3C)cc3ccc1nc32` [Example 563, (2~{R},5~{R},7~{R})-14-[6-[(1~{R},2~{R},4~ {S})-2-amino-7-azabicyclo [2.2.1]heptane-7-carbonyl]-3-methyl-imidazo[4,5-b]pyridin-2-yl]-2-methyl-3,13,19-triazatetracyclo [11.5.2.0^{5,7}.0^{16,20}] icosa-1(19),14,16(20), 17-tetraen-4-one] the figure was 7.59. `C[C@H]1NC(=O)[C@@H]2C[C@H]2CCCCCn2c(-c3nc4cc(C(=O)N[C@H]5CNCC[C@@H]5F)c(F)cc4n3C)cc3ccc1cc32` [Example 564, 6-fluoro-~{N}-[(3~{S},4~ {S})-4-fluoro-3-piperidyl]-1-methyl-2-[(2~{R},5~ {R},7~{R})-2-methyl-4-oxo-3,13-diazatetracyclo [11.5.2.0^{5,7}.0^{16,20}]icosa-1(19),14,16(20), 17-tetraen-14-yl] benzimidazole-5-carboxamide]: the pIC50 was 7.62. For the molecule `C[C@H]1NC(=O)C(C)(C)CCCCCCn2c(-c3nc4cc(C(=O)N[C@H]5CNCC[C@@H]5F)c(F)cc4n3C)cc3ccc1cc32` [Example 565, 6-fluoro-~{N}-[(3~{S}, 4~{S})-4-fluoro-3-piperidyl]-1-methyl-2-[(11~{R})-8,8,11-trimethyl-9-oxo-1,10-diazatricyclo[10.5.2.0^ {15,18}]nonadeca-12(19),13,15(18),16-tetraen-17-yl] benzimidazole-5-carboxamide], the negative-log IC50 (pIC50) was 7.39.

In the case of `C[C@H]1NC(=O)[C@@H]2CC2CCCC(F)(F)Cn2c(-c3nc4cc(C(=O)N5C[C@H]6CC[C@@H]5[C@@H]6N)c(F)c(F)c4n3C)cc3ccc1nc32` (some centres unmarked) [Example 566, (2~{R},5~{R},7~{R})-14-[5-[(1~{R},4~{R},7~{R})-7-amino-2-azabicyclo [2.2.1]heptane-2-carbonyl]-6,7-difluoro-1-methyl-benzimidazol-2-yl]-11,11-difluoro-2-methyl-3,13,19-triazatetracyclo[11.5.2.0^ {5,7).0^{16,20}]icosa-1(19),14,16(20),17-tetraen-4-one], the pIC50 is 7.01. Under `C[C@H]1NC(=O)[C@@H]2C[C@H]2CCCCCn2c(-c3nc4cc(C(=O)N[C@@H]5CCCNC5)c(F)cc4n3C3CC3)cc3ccc1nc32` [Example 568, 1-cyclopropyl-6-fluoro-2-[(2~{R},5~{R},7~{R})-2-methyl-4-oxo-3,13,19-triazatetracyclo[11.5.2.0^ {5,7}.0^{16,20}]icosa-1(19), 14,16(20),17-tetraen-14-yl]- ~{N}-[(3~{R})-3-piperidyl]benzimidazole-5-carboxamide11,11-difluoro-2-methyl-4-oxo-3,13,19-] stands 7.48; under `C[C@H]1NC(=O)[C@@H]2C[C@H]2CCCCCn2c(-c3nc4cc(C(=O)N5CC6(CCCNC6)C5)c(F)cc4n3C3CC3)cc3ccc1nc32` [Example 569, (2~{R},5~{R},7~{R})-14-[1-cyclopropyl-5-(2,8-diazaspiro[3.5]nonane-2-carbonyl)-6-fluoro-benzimidazol-2-yl]-2-methyl-3,13,19-triazatetracyclo [11.5.2.0^{5,7}.0^ {16,20}]icosa-1(19),14, 16(20),17-tetraen-4-one], 6.96; under `COc1cc(C(=O)N2CC[C@@H](OC)[C@@H](N)C2)cc2nc(-c3cc4ccc5nc4n3CCCCCc3nn(C)nc3C(=O)N[C@@H]5C)n(C)c12` [Example 570, (2~{R})-16-[5-[(3~{S}, 4~{R})-3-amino-4-methoxy-piperidine-1-carbonyl]-7-methoxy-1-methyl-benzimidazol-2-yl]-2,7-dimethyl-3,6,7,8,15,21-hexazatetracyclo[13.5.2.0^ {5,9}.0^{18,22}] docosa-1(21),5,8,16,18(22), 19-hexaen-4-one], 7.03. Turning to `C[C@H]1NC(=O)[C@@H]2C[C@H]2CCCCCn2c(-c3nc4cc(C(=O)N[C@H]5CNCC[C@@H]5F)c(F)cc4n3C3CC34CC4)cc3ccc1nc32` (some centres unmarked) [Example 571, 6-fluoro-~{N}-[(3~ {S},4~{S})-4-fluoro-3-piperidyl]-2-[(2~{R}, 5~{R},7~{R})-2-methyl-4-oxo-3,13,19-triazatetracyclo[11.5.2.0^ {5,7}.0^{16,20}]icosa-1(19),14,16(20),17-tetraen-14-yl]-1-spiro [2.2]pentan-2-yl-benzimidazole-5-carboxamide], the negative logarithm of the IC50 (pIC50) is 7.51.

On to `CO[C@@H]1CCN(C(=O)c2cc3nc(-c4cc5ccc6nc5n4CCCCC[C@@H]4C[C@H]4C(=O)N[C@@H]6C)n(C4CC4)c3cc2F)C[C@@H]1N` [Example 572, (2~{R},5~{R},7~{R})-14-[5-[(3~{S},4~{R})-3-amino-4-methoxy-piperidine-1-carbonyl]-1-cyclopropyl-6-fluoro-benzimidazol-2-yl]-2-methyl-3,13,19-triazatetracyclo [11.5.2.0^{5,7}.0^{16,20}] icosa-1(19),14,16(20), 17-tetraen-4-one], for which the negative logarithm of the IC50 (pIC50) is 7.28. Under `C[C@H]1NC(=O)[C@@H]2C[C@H]2CCCCCn2c(-c3nc4cc(C(=O)N[C@H]5CNCC[C@@H]5F)cnc4n3C3CC3)cc3ccc1nc32` [Example 573, 3-cyclopropyl-~{N}-[(3~ {S},4~{S})-4-fluoro-3-piperidyl]-2-[(2~{R},5~ {R},7~{R})-2-methyl-4-oxo-3,13,19-triazatetracyclo [11.5.2.0^{5,7}.0^{16,20}]icosa-1(19),14,16(20), 17-tetraen-14-yl]imidazo [4,5-b]pyridine-6-carboxamide] stands 7.64.
